For test [1], the target named is T1, Cyclin-dependent kinase-like 2 (Homo sapiens) (UniProt Q92772).
T1 sequence (whole entry): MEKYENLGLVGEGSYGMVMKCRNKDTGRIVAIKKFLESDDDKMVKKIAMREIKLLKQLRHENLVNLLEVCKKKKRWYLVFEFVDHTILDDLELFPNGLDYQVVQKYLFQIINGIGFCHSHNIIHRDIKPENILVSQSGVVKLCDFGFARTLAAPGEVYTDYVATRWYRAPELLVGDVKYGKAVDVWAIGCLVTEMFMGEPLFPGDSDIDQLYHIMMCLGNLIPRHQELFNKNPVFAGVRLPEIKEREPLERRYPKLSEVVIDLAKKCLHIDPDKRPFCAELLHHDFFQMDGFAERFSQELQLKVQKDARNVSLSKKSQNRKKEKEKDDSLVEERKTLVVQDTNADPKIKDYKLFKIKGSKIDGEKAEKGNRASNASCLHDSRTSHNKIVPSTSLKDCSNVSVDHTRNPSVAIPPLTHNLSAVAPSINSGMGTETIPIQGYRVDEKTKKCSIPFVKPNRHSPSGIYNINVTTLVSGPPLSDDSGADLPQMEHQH
Kind of test: Selectivity interaction (KinomeScan (DiscoverX)) EUB0000607a CDKL2. The settings on record: at 10 µM.

Test [2] concerns the target Cyclin-dependent kinase 9 (Homo sapiens, UniProt P50750). Kind of test: Selectivity interaction (KinomeScan (DiscoverX)) EUB0000607a CDK9. The settings on record: at 10 µM.
Test [3] deals with T2, Peripheral plasma membrane protein CASK (Homo sapiens) (UniProt O14936).
T2 sequence (whole entry): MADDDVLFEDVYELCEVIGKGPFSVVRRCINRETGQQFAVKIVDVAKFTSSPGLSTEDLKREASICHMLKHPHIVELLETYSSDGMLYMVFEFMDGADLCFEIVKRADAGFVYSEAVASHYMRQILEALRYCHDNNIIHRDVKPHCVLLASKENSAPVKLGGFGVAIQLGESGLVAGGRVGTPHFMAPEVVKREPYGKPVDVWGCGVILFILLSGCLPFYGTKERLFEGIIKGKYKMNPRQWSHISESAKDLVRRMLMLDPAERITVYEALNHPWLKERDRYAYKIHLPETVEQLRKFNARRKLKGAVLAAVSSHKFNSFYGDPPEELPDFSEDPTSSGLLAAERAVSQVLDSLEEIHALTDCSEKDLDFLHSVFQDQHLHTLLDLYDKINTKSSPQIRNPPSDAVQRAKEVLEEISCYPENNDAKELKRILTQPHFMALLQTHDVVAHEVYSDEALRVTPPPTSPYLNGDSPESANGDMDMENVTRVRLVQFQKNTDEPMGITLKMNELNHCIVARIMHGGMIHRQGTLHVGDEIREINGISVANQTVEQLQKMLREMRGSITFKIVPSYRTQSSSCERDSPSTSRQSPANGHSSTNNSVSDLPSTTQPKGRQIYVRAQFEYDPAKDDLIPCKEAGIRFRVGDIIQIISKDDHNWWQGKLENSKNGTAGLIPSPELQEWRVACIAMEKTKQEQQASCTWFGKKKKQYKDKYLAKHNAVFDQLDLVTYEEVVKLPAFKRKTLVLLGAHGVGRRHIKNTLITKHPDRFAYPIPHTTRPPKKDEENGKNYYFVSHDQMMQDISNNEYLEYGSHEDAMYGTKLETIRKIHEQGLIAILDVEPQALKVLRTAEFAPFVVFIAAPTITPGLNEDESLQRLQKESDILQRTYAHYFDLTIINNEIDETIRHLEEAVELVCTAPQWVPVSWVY
The settings on record: at 10 µM.

For test [4], the target named is Serine/threonine-protein kinase B-raf (Homo sapiens) (UniProt P15056). In words: Selectivity interaction (Kinase panel (Invitrogen)) EUB0000639a BRAF. The settings on record: at 200 nM.
Serine/threonine-protein kinase B-raf (Homo sapiens), sequence (P15056 whole entry): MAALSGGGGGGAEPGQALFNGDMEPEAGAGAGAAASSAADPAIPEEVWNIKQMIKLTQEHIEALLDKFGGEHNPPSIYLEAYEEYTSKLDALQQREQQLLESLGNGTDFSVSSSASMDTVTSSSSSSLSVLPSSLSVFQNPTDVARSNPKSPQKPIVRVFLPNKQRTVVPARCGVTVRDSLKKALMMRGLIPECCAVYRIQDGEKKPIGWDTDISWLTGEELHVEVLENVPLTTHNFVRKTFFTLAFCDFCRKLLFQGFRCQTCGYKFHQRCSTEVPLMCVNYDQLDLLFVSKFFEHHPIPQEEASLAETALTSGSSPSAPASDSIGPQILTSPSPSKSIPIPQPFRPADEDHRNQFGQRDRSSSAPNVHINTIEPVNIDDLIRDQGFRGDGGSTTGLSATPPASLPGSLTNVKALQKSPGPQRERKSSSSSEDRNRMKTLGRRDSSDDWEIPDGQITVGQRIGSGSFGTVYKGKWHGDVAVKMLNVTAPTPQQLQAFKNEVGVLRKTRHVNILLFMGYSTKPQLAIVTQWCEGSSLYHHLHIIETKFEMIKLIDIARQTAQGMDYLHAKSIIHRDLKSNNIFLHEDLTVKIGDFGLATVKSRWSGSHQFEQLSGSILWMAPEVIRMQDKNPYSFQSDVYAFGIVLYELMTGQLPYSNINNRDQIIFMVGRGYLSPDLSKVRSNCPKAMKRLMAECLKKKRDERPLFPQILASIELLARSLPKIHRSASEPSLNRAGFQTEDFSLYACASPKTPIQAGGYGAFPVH
In test [5] the target is T3, MAP/microtubule affinity-regulating kinase 4 (Homo sapiens) (UniProt Q96L34).
T3 sequence (whole entry): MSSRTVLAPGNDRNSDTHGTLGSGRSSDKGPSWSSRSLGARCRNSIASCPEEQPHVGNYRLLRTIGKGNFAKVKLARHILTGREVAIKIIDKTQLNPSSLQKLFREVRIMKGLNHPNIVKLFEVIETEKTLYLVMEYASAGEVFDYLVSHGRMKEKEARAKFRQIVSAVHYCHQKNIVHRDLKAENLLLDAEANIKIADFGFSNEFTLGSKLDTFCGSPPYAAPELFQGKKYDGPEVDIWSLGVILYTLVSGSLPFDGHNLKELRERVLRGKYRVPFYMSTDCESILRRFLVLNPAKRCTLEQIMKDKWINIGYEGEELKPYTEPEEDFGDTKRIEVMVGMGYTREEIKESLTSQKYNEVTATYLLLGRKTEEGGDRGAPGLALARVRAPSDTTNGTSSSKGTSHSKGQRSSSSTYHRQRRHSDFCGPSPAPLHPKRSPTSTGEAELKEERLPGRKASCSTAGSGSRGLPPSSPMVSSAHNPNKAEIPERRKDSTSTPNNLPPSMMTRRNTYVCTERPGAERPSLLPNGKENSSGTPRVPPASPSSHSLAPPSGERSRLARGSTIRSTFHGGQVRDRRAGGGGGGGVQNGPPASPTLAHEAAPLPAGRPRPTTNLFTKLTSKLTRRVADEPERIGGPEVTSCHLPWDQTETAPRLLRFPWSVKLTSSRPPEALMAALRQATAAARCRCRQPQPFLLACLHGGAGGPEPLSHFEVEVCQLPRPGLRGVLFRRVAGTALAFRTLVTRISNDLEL
Kind of test: Selectivity interaction (ActivX KiNativ screen (kinase selectivity in THP-1 cell lysates)) EUB0000639a MARK4. The class given is subcellular. As to conditions: lysate, at 1 µM.

Test [6] concerns the target Casein kinase II subunit alpha' (Homo sapiens) (UniProt P19784). In words: Selectivity interaction (KinomeScan (DiscoverX)) EUB0000595a CSNK2A2. The settings on record: at 10 µM.

Cyclin-dependent kinase 9, sequence (P50750 whole entry): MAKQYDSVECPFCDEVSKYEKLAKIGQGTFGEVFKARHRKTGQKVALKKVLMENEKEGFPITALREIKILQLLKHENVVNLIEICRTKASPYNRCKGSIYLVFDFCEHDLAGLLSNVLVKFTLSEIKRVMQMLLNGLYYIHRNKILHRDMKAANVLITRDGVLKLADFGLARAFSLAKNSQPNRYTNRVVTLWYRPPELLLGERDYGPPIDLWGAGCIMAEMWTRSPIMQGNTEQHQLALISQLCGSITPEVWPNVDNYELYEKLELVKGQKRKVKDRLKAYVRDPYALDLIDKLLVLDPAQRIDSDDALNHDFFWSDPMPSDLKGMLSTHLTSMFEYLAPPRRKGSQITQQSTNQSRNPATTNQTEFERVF
Casein kinase II subunit alpha' (Homo sapiens), sequence (P19784 whole entry, looked up): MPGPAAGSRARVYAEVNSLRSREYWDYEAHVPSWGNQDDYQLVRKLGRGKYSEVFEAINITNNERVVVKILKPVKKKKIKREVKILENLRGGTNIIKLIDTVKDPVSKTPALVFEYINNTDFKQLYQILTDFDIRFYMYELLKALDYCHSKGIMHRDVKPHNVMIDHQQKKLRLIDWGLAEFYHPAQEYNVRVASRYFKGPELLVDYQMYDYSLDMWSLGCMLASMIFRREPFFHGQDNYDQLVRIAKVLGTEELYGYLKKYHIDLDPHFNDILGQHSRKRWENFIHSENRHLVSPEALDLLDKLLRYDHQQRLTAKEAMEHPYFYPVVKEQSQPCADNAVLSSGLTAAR

Consider `CNC(=O)Nc1ccc(-c2nc(N3CC4CCC(C3)O4)c3cnn(C4CCC5(CC4)OCCO5)c3n2)cc1`, for which the % of control in test [1] and in test [2] was 100% each time.

`Cc1cc([C@@H](C)Nc2ccccc2C(=O)O)c2nc(N3CCOCC3)cc(=O)n2c1` [AZD-6482] gave a % of control in test [3] of 92%.

`CC[C@@H]1[C@H](F)C(=O)N[C@@H]1COc1nccc2cc(C(N)=O)c(OC)cc12` [ZIMLOVISERTIB]: the values for the % of inhibition in test [4] and in test [5] were 0.492% and 17.1%, respectively.

`COCC(=O)NC/C=C/c1ccc2ncnc(Nc3ccc(Oc4ccc(C)nc4)c(C)c3)c2c1` [CP-724714] came in with a % of control in test [6] of 100%.

The record behind these values is ChEMBL document CHEMBL5465560, “Selectivity Literature for EUbOPEN Chemogenomic Library” (2024).
